According to PubChem BioAssay AID1963867 (Molecular Pharmacology Branch, DTP, NCI, 2024):

Test system: KRAS-mutant PDC tumor spheroid with HUVEC/MSC, viability
Test: Anticancer human tumor 327498-153-R-J2-PDC patient-derived uterine carcinosarcoma cell line growth inhibition [KRAS2]
Settings: for IC50: curve of first compound; for viability, T/C: stronger effect = lower value
Source text: Multicellular complex tumor spheroid response to RAS pathway inhibitors in combination with a targeted agents in patient-derived cell lines with oncogenic KRAS variants from multiple cancer types
A high-throughput screen of multi-cell type tumor spheroids was designed to identify active combinations of targeted small molecules and KRAS pathway inhibitors. Complex spheroids include a stromal component modeled by human endothelial cells (HUVEC) and fibroblasts modeled by human mesenchymal stem cells (MSCs). The concentration ranges selected for each drug and investigational agent were based upon clinically achievable concentrations if the clinical Cmax of the agent was known.
Compounds. The drugs and investigational agents: BI-3406 (NSC825286), BAY-293 (NSC824723), batoprotafib (TNO155; NSC825523), sotorasib (AMG 510; NSC818433), MRTX1257 (NSC819558), elimusertib (BAY 1895344; NSC800525), molibresib (GSK525762; NSC774829), temuterkib (LY3214996; NSC803410), venetoclax (NSC766270), alisertib (NSC759677), olaparib (NSC753686), talazoparib (NSC767125), erdafitinib (NSC781556), ipatasertib (NSC767898), cabozantinib (NSC761068), nintedanib (NSC756659), abemaciclib (NSC768073), docetaxel (NSC628503), trametinib (NSC758246), and sapanisertib (NSC764658) were obtained from the National Cancer Institute (NCI) Developmental Therapeutics Program Chemical Repository. The FDA-approved anticancer drug set is available from the Developmental Therapeutics Program. […] The stock solutions were prepared in dimethyl sulfoxide (DMSO, Sigma-Aldrich, St. Louis, MO, cat. D2650) at 800-fold the tested concentration and stored at -70 degrees C prior to their use. All drugs and investigational agents were tested over a range starting from a high concentration at or near the clinical Cmax and decreasing in half-log increments. If the clinical Cmax for an agent had not been determined, the highest concentration tested was 10 microM.
Cell Culture. All cells were maintained in an incubator at 37 degrees C and 5% CO2 with 95% humidity. The PDC lines were cultured according to standard operating procedures established by the NCI PDMR (https://pdmr.cancer.gov/sops/default.htm). Briefly, all PDCs were thawed and cultured in Matrigel-coated flasks prepared with a working solution of 1X Ham's F-12 nutrient mix, without supplementation (Invitrogen, Waltham, MA, cat. 11765054), 100 U/mL penicillin-streptomycin (Invitrogen, cat. 15140122), and 2.5% Matrigel (Corning Inc., Corning, NY, cat. 354248) for the first three passages. All PDCs were cultured in complete DMEM/F-12 media containing advanced DMEM/F-12 (Invitrogen, cat. 12634028), 4.9% defined fetal bovine serum, heat inactivated (HyClone Laboratories Inc., Logan, UT, cat. SH30070.03HI), 389 ng/mL hydrocortisone (Sigma-Aldrich, cat. H4001), 9.7 ng/mL human EGF recombinant protein (Invitrogen, cat. PHG0313), 23.4 microg/mL adenine (Sigma-Aldrich, cat. A2786), 97.3 U/mL penicillin-streptomycin (Invitrogen, cat. 15140122), 1.9 mM L-glutamine (Invitrogen, cat. 25030081), and 9.7 microM Y-27632 dihydrochloride (Tocris Bioscience, Bristol, United Kingdom, cat. 1254). The PDCs were cultured in complete DMEM/F12 media without 9.7 microM Y-27632 dihydrochloride for at least two passages prior to the screen. The established cell line HOP-62 was cultured in RPMI 1640 medium, HEPES (Invitrogen, cat. 22400105) with 10% defined fetal bovine serum (HyClone Laboratories Inc., cat. SH30070.03) and 2 mM L-glutamine (Invitrogen, cat. 25030081). The pooled donor HUVEC were cultured in endothelial cell growth medium 2 (PromoCell, Heidelberg, Germany, cat. C-22011) and the hMSC were cultured in mesenchymal stem cell growth medium 2 (PromoCell, cat. C-28009). For all experiments, HUVEC and hMSC were used at passages </=5, while the malignant cell lines were used at passages </=15. […]

[1] = second compound 0.1 µM, first compound 0.000316 µM
[2] = second compound 0.1 µM, first compound 0.001 µM
[3] = second compound 0.1 µM, first compound 0.00316 µM
[4] = second compound 0.1 µM, first compound 0.01 µM
[5] = second compound 0.1 µM, first compound 0.0316 µM
[6] = second compound 0.1 µM, first compound 0.1 µM
[7] = second compound 0.316 µM, first compound 0.000316 µM
[8] = second compound 0.316 µM, first compound 0.001 µM
[9] = second compound 0.316 µM, first compound 0.00316 µM
[10] = second compound 0.316 µM, first compound 0.01 µM
[11] = second compound 0.316 µM, first compound 0.0316 µM
[12] = second compound 0.316 µM, first compound 0.1 µM
[13] = second compound 1 µM, first compound 0.000316 µM
[14] = second compound 1 µM, first compound 0.001 µM
[15] = second compound 1 µM, first compound 0.00316 µM
[16] = second compound 1 µM, first compound 0.01 µM
[17] = second compound 1 µM, first compound 0.0316 µM
[18] = second compound 1 µM, first compound 0.1 µM
[19] = second compound 3.16 µM, first compound 0.000316 µM
[20] = second compound 3.16 µM, first compound 0.001 µM
[21] = second compound 3.16 µM, first compound 0.00316 µM
[22] = second compound 3.16 µM, first compound 0.01 µM
[23] = second compound 3.16 µM, first compound 0.0316 µM
[24] = second compound 3.16 µM, first compound 0.1 µM
[25] = second compound 10 µM, first compound 0.000316 µM
[26] = second compound 10 µM, first compound 0.001 µM
[27] = second compound 10 µM, first compound 0.00316 µM
[28] = second compound 10 µM, first compound 0.01 µM
[29] = second compound 10 µM, first compound 0.0316 µM
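Note: spheroids exposed to agents for seven days before reading.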
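Throughout, for viability, T/C: 100% = DMSO vehicle wells so lower means fewer viable cells.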

## Cn1ncnc1[C@H]1c2n[nH]c(=O)c3cc(F)cc(c23)N[C@@H]1c1ccc(F)cc1 + C=CC(=O)N1CCN(c2nc(=O)n(-c3c(C)ccnc3C(C)C)c3nc(-c4c(O)cccc4F)c(F)cc23)C(C)C1
Second compound 0.1 µM
  IC50: 3.87 nM
Second compound 0.316 µM
  IC50: 3.46 nM
Second compound 1 µM
  IC50: 1.97 nM
Second compound 3.16 µM
  IC50: 1.74 nM
Second compound 10 µM
  IC50: < 0.316 nM
[1]
  viability, T/C: 63.7%
[2]
  viability, T/C: 58.6%
[3]
  viability, T/C: 54%
[4]
  viability, T/C: 36.1%
[5]
  viability, T/C: 22.2%
[6]
  viability, T/C: 15.6%
[7]
  viability, T/C: 54.8%
[8]
  viability, T/C: 60.3%
[9]
  viability, T/C: 49.1%
[10]
  viability, T/C: 36.9%
[11]
  viability, T/C: 19.8%
[12]
  viability, T/C: 15.4%
[13]
  viability, T/C: 59%
[14]
  viability, T/C: 59.5%
[15]
  viability, T/C: 42.7%
[16]
  viability, T/C: 34.1%
[17]
  viability, T/C: 21%
[18]
  viability, T/C: 15.9%
[19]
  viability, T/C: 55.9%
[20]
  viability, T/C: 53%
[21]
  viability, T/C: 47%
[22]
  viability, T/C: 32.4%
[23]
  viability, T/C: 21.7%
[24]
  viability, T/C: 14.8%
[25]
  viability, T/C: 39.9%
[26]
  viability, T/C: 45.1%
[27]
  viability, T/C: 34.1%
[28]
  viability, T/C: 20.5%
[29]
  viability, T/C: 16.9%
Second compound 10 µM, first compound 0.1 µM
  viability, T/C: 13.4%

## CC1(C)CCC(CN2CCN(c3ccc(C(=O)NS(=O)(=O)c4ccc(NCC5CCOCC5)c([N+](=O)[O-])c4)c(Oc4cnc5[nH]ccc5c4)c3)CC2)=C(c2ccc(Cl)cc2)C1 + C=CC(=O)N1CCN(c2nc(OCC3CCCN3C)nc3c2CCN(c2cccc4cccc(C)c24)C3)CC1CC#N
Second compound 0.0316 µM
  IC50: 1990 nM
Second compound 0.1 µM
  IC50: 1650 nM
Second compound 0.316 µM
  IC50: 1100 nM
Second compound 1 µM
  IC50: < 31.6 nM
Second compound 3.16 µM
  IC50: < 31.6 nM
Second compound 0.0316 µM, first compound 0.0316 µM
  viability, T/C: 70.1%
Second compound 0.0316 µM, first compound 0.1 µM
  viability, T/C: 66.6%
Second compound 0.0316 µM, first compound 0.316 µM
  viability, T/C: 72.7%
Second compound 0.0316 µM, first compound 1 µM
  viability, T/C: 63.8%
Second compound 0.0316 µM, first compound 3.16 µM
  viability, T/C: 40.2%
Second compound 0.0316 µM, first compound 10 µM
  viability, T/C: 8.7%
[5]
  viability, T/C: 56.8%
[6]
  viability, T/C: 59.2%
Second compound 0.1 µM, first compound 0.316 µM
  viability, T/C: 52%
Second compound 0.1 µM, first compound 1 µM
  viability, T/C: 53%
Second compound 0.1 µM, first compound 3.16 µM
  viability, T/C: 45.9%
Second compound 0.1 µM, first compound 10 µM
  viability, T/C: 12.1%
[11]
  viability, T/C: 48.7%
[12]
  viability, T/C: 49%
Second compound 0.316 µM, first compound 0.316 µM
  viability, T/C: 58.4%
Second compound 0.316 µM, first compound 1 µM
  viability, T/C: 52.2%
Second compound 0.316 µM, first compound 3.16 µM
  viability, T/C: 27.3%
Second compound 0.316 µM, first compound 10 µM
  viability, T/C: 1.57%
[17]
  viability, T/C: 44.5%
[18]
  viability, T/C: 44.1%
Second compound 1 µM, first compound 0.316 µM
  viability, T/C: 44.9%
Second compound 1 µM, first compound 1 µM
  viability, T/C: 48%
Second compound 1 µM, first compound 3.16 µM
  viability, T/C: 18.5%
Second compound 1 µM, first compound 10 µM
  viability, T/C: 0.31%
[23]
  viability, T/C: 1.15%
[24]
  viability, T/C: 1.18%
Second compound 3.16 µM, first compound 0.316 µM
  viability, T/C: 0.54%
Second compound 3.16 µM, first compound 1 µM
  viability, T/C: 0.45%
Second compound 3.16 µM, first compound 3.16 µM
  viability, T/C: 1.03%
Second compound 3.16 µM, first compound 10 µM
  viability, T/C: 0.39%

## CC(=O)Nc1cccc(-n2c(=O)n(C3CC3)c(=O)c3c(Nc4ccc(I)cc4F)n(C)c(=O)c(C)c32)c1 + CC1OCC2(CCN(c3cnc(Sc4ccnc(N)c4Cl)c(N)n3)CC2)C1N
Second compound 0.1 µM
  IC50: 1.66 nM
Second compound 0.316 µM
  IC50: 0.493 nM
Second compound 1 µM
  IC50: < 0.1 nM
Second compound 3.16 µM
  IC50: < 0.1 nM
Second compound 10 µM
  IC50: < 0.1 nM
Second compound 0.1 µM, first compound 0.0001 µM
  viability, T/C: 75.2%
[1]
  viability, T/C: 58.4%
[2]
  viability, T/C: 50.2%
[3]
  viability, T/C: 46.5%
[4]
  viability, T/C: 44.7%
[5]
  viability, T/C: 26.3%
Second compound 0.316 µM, first compound 0.0001 µM
  viability, T/C: 52.7%
[7]
  viability, T/C: 52.4%
[8]
  viability, T/C: 48.2%
[9]
  viability, T/C: 40.8%
[10]
  viability, T/C: 35%
[11]
  viability, T/C: 22.8%
Second compound 1 µM, first compound 0.0001 µM
  viability, T/C: 41%
[13]
  viability, T/C: 35.2%
[14]
  viability, T/C: 34.9%
[15]
  viability, T/C: 29.7%
[16]
  viability, T/C: 26.8%
[17]
  viability, T/C: 16.1%
Second compound 3.16 µM, first compound 0.0001 µM
  viability, T/C: 31.1%
[19]
  viability, T/C: 26.9%
[20]
  viability, T/C: 22.1%
[21]
  viability, T/C: 22.1%
[22]
  viability, T/C: 17.2%
[23]
  viability, T/C: 13.1%
Second compound 10 µM, first compound 0.0001 µM
  viability, T/C: 22.8%
[25]
  viability, T/C: 21.3%
[26]
  viability, T/C: 21.6%
[27]
  viability, T/C: 15.8%
[28]
  viability, T/C: 13.9%
[29]
  viability, T/C: 11.3%
